Like-named read-outs stand apart in the source and are kept apart here.
Experiments:
human CB2 receptors = human CB2 receptors (Homo sapiens (Human), UniProt P34972); experiment: human CB2 radioligand binding assay ([3H]CP 55,940 competition)
Method: (§1) The CB1 and CB2 radioligand binding assays described herein are utilized to ascertain the affinity of compounds of the present application for binding to CB2 relative to CB1 receptors.
HEK293 cells stably expressing human CB2 receptors were grown until a confluent monolayer was formed. Briefly, the cells were harvested and homogenized in TE buffer (50 mM Tris-HCl, 1 mM MgCl2, and 1 mM EDTA) using a polytron for 2×10 second bursts in the presence of protease inhibitors, followed by centrifugation at 45,000×g for 20 minutes. The final membrane pellet was re-homogenized in storage buffer (50 mM Tris-HCl, 1 mM MgCl2, and 1 mM EDTA and 10% sucrose) and frozen at −78° C. until used. Saturation binding reactions were initiated by the addition of membrane preparation (protein concentration of 5 μg/well for human CB2) into wells of a deep well plate containing [^3H]CP 55,940 (120 Ci/mmol, a nonselective CB agonist commercially available from Tocris) in assay buffer (50 mM Tris, 2.5 mM EDTA, 5 mM MgCl2, and 0.5 mg/mL fatty acid free BSA, pH 7.4). After 90 min incubation at 30° C., binding reaction was terminated by the addition of 300 μL/well of cold assay buffer followed by rapid vacuum filtration through a UniFilter-96 GF/C filter plates (pre-soaked in 1 mg/mL BSA for 2 hours). The bound activity was counted in a TopCount using Microscint-20. Saturation experiments were conducted with twelve concentrations of [^3H]CP 55,940 ranging from 0.01 to 8 nM. Competition experiments were conducted with 0.5 nM [^3H]CP 55,940 and five concentrations (0.01 nM to 10 μM) of displacing ligands. The addition of 10 μM unlabeled CP 55,940 (Tocris, Ellisville, Mo.) was used to assess nonspecific binding.

rat CB2 = rat CB2 (Rattus norvegicus (Rat), UniProt Q9QZN9); experiment: rat CB2 radioligand binding assay ([3H]CP 55,940 competition)
Method: as §1
HEK293 cells stably expressing rat CB2 receptors were grown until a confluent monolayer was formed. Briefly, the cells were harvested and homogenized in TE buffer (50 mM Tris-HCl, 1 mM MgCl2, and 1 mM EDTA) using a polytron for 2×10 second bursts in the presence of protease inhibitors, followed by centrifugation at 45,000×g for 20 minutes. The final membrane pellet was re-homogenized in storage buffer (50 mM Tris-HCl, 1 mM MgCl2, and 1 mM EDTA and 10% sucrose) and frozen at −78° C. until used. Saturation binding reactions were initiated by the addition of membrane preparation (protein concentration of 20 μg/well for rat CB2) into wells of a deep well plate containing [^3H]CP 55,940 (120 Ci/mmol, a nonselective CB agonist commercially available from Tocris) in assay buffer (50 mM Tris, 2.5 mM EDTA, 5 mM MgCl2, and 0.5 mg/mL fatty acid free BSA, pH 7.4). After 45 min incubation at 30° C., binding reaction was terminated by the addition of 300 μl/well of cold assay buffer followed by rapid vacuum filtration through a UniFilter-96 GF/C filter plates (pre-soaked in 1 mg/mL BSA for 2 hours). The bound activity was counted in a TopCount using Microscint-20. Saturation experiments were conducted with twelve concentrations of [^3H]CP 55,940 ranging from 0.01 to 8 nM. Competition experiments were conducted with 0.5 nM [^3H]CP 55,940 and five concentrations of displacing ligands selected from the range of 0.01 nM to […] addition of 10 μM unlabeled CP 55,940 (Tocris, Ellisville, Mo.) was used to assess nonspecific binding.

[1] = HEK293 membranes, 0.5 nM [3H]CP 55,940, read-out: human CB2 (Ki)
[2] = HEK293 membranes, 0.5 nM [3H]CP 55,940, read-out: rat CB2 (Ki)

Sequence of rat CB2 (Q9QZN9 whole entry): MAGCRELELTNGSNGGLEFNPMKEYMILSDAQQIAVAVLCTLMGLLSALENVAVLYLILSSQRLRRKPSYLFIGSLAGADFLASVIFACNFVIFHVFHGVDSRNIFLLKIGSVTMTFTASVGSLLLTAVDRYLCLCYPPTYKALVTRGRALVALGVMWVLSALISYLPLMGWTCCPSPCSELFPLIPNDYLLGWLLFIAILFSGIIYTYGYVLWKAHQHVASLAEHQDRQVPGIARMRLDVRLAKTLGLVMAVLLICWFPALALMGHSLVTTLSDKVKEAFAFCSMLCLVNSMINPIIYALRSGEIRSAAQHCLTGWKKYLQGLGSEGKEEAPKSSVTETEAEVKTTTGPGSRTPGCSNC
Sequence of human CB2 receptors (P34972 whole entry): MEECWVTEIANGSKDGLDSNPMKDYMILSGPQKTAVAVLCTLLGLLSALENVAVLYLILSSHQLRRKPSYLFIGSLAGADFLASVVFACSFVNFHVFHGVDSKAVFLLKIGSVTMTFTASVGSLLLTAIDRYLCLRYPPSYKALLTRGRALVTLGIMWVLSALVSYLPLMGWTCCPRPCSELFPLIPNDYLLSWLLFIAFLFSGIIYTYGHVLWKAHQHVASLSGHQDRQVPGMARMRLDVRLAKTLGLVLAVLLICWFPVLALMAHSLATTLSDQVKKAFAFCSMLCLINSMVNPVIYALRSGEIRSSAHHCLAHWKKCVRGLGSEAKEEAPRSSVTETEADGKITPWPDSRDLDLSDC

| SMILES | Ki (human CB2 receptors; [1]) | Ki (rat CB2; [2]) | Ki (human CB2 receptors) | Ki (rat CB2) |
| --- | --- | --- | --- | --- |
| CC(C)(C)NOc1ccc(C(F)(F)F)cc1C(=O)/N=c1\sc(C(C)(C)C)nn1CCCCF [Example 174, 2-[(tert-butylamino)oxy]-N-[(2Z)-5-tert-butyl-3-(4-fluorobutyl)-1,3,4-thiadiazol-2(3H)-ylidene]-5-(trifluoromethyl)benzamide] | 6.2 nM | 1.1 nM |  |  |
| CCCCn1nc(C(C)(C)C)s/c1=N\C(=O)c1cc(C(F)(F)F)ccc1ON=C(N)C(C)C [Example 175, 2-({[1-amino-2-methylpropylidene]amino}oxy)-N-[(2Z)-3-butyl-5-tert-butyl-1,3,4-thiadiazol-2(3H)-ylidene]-5-(trifluoromethyl)benzamide] | 5.3 nM | 2.9 nM |  |  |
| CCCCn1nc(C(C)(C)C)s/c1=N\C(=O)c1cc(C(F)(F)F)ccc1ON=C(N)C(=O)OCC [Example 176, ethyl amino {[2-({[(2Z)-3-butyl-5-tert-butyl-1,3,4-thiadiazol-2(3H)-ylidene]amino}carbonyl)-4-(trifluoromethyl)phenoxy]imino}acetate] | 6.1 nM | 1.7 nM |  |  |
| CC(C)(C)NOc1ccc(C(F)(F)F)cc1C(=O)/N=c1\sc(C(C)(C)C)nn1CC1CCO1 (stereo not shown) [Example 177, 2-[(tert-butylamino)oxy]-N-[(2Z)-5-tert-butyl-3-(oxetan-2-ylmethyl)-1,3,4-thiadiazol-2(3H)-ylidene]-5-(trifluoromethyl)benzamide] | 15 nM | 7.3 nM |  |  |
| C/C(=N\Oc1ccc(C(F)(F)F)cc1C(=O)/N=c1\cc(C(C)(C)C)n(C)n1C[C@H]1CCCO1)C(F)(F)F [Example 178, N-{(3E)-5-tert-butyl-1-methyl-2-[(2R)-tetrahydrofuran-2-ylmethyl]-1,2-dihydro-3H-pyrazol-3-ylidene}-5-(trifluoromethyl)-2-({[(1E)-2,2,2-trifluoro-1-methylethylidene]amino}oxy)benzamide] | > 1000 nM | 40 nM |  |  |
| C/C(=N\Oc1ccc(C(F)(F)F)cc1C(=O)/N=c1\cc(C(C)(C)C)n(C)n1CC1CC1)C(F)(F)F [Example 179, N-[(3E)-5-tert-butyl-2-(cyclopropylmethyl)-1-methyl-1,2-dihydro-3H-pyrazol-3-ylidene]-5-trifluoromethyl-2-({[(1E)-2,2,2-trifluoro-1-methylethylidene]amino}oxy)benzamide] | > 1000 nM | 288 nM |  |  |
| CCCCn1nc(C(C)(C)C)s/c1=N\C(=O)c1cc(C(F)(F)F)ccc1O/N=C(\C)C(C)=O [Example 180, N-[(2Z)-3-butyl-5-tert-butyl-1,3,4-thiadiazol-2(3H)-ylidene]-2-({[(1E)-1-methyl-2-oxopropylidene]amino}oxy)-5-(trifluoromethyl)benzamide] | 18 nM | 11 nM |  |  |
| CCCCn1nc(C(C)(C)C)s/c1=N\C(=O)c1cc(C(F)(F)F)ccc1NNC(=O)OC(C)(C)C [Example 181, tert-butyl 2-[2-({[(2Z)-3-butyl-5-tert-butyl-1,3,4-thiadiazol-2(3H)-ylidene]amino}carbonyl)-4-(trifluoromethyl)phenyl]hydrazinecarboxylate] |  |  | 1 nM | 1.7 nM |
| CCCCn1nc(C(C)(C)C)s/c1=N\C(=O)c1cc(C(F)(F)F)ccc1ON=C(N)c1ccc(F)cc1 [Example 182, 2-({[amino(4-fluorophenyl)methylene]amino}oxy)-N-[(2Z)-3-butyl-5-tert-butyl-1,3,4-thiadiazol-2(3H)-ylidene]-5-(trifluoromethyl)benzamide] | 21 nM | 7 nM |  |  |
| CCCCn1nc(C(C)(C)C)s/c1=N\C(=O)c1cc(C(F)(F)F)ccc1NNc1ccccn1 [Example 183, N-[(2Z)-3-butyl-5-tert-butyl-1,3,4-thiadiazol-2(3H)-ylidene]-2-(2-pyridin-2-ylhydrazino)-5-(trifluoromethyl)benzamide] | 32 nM | 5.6 nM |  |  |
| CCCCn1nc(C(C)(C)C)s/c1=N\C(=O)c1cc(C(F)(F)F)ccc1N(C)N(C)C(=O)OC(C)(C)C [Example 184] | 279 nM | 35 nM |  |  |
| CCCCn1nc(C(C)(C)C)s/c1=N\C(=O)c1cc(C(F)(F)F)ccc1ON=C(C)N [Example 185, 2-({[1-aminoethylidene]amino}oxy)-N-[(2Z)-3-butyl-5-tert-butyl-1,3,4-thiadiazol-2(3H)-ylidene]-5-(trifluoromethyl)benzamide] | 16 nM | 3.6 nM |  |  |
| CCCCn1nc(C(C)(C)C)s/c1=N\C(=O)c1cc(C(F)(F)F)ccc1ON=C(N)CC [Example 186, 2-({[1-aminopropylidene]amino}oxy)-N-[(2Z)-3-butyl-5-tert-butyl-1,3,4-thiadiazol-2(3H)-ylidene]-5-(trifluoromethyl)benzamide] | 5.1 nM | 2.7 nM |  |  |
| CCCCn1nc(C(C)(C)C)s/c1=N\C(=O)c1cc(C(F)(F)F)ccc1NN=C(C)C [Example 187, N-[(2Z)-3-butyl-5-tert-butyl-1,3,4-thiadiazol-2(3H)-ylidene]-2-[2-(1-methylethylidene)hydrazino]-5-(trifluoromethyl)benzamide] | 247 nM | 120 nM |  |  |
| CCCCn1nc(C(C)(C)C)s/c1=N\C(=O)c1cc(C(F)(F)F)ccc1ON=C(N)C1CC1 [Example 188, 2-({[amino(cyclopropyl)methylene]amino}oxy)-N-[(2Z)-3-butyl-5-tert-butyl-1,3,4-thiadiazol-2(3H)-ylidene]-5-(trifluoromethyl)benzamide] | 2.5 nM | 0.9 nM |  |  |
| CCCCn1nc(C(C)(C)C)s/c1=N\C(=O)c1cc(C(F)(F)F)ccc1ON=C1CCCCCN1 [Example 189, 2-{[azepan-2-ylideneamino]oxy}-N-[(2Z)-3-butyl-5-tert-butyl-1,3,4-thiadiazol-2(3H)-ylidene]-5-(trifluoromethyl)benzamide] | 1.6 nM | 4.9 nM |  |  |
| CCCCn1nc(C(C)(C)C)s/c1=N\C(=O)c1cc(C(F)(F)F)ccc1ON=C1CCCC1 [Example 190, N-[(2Z)-3-butyl-5-tert-butyl-1,3,4-thiadiazol-2(3H)-ylidene]-2-[(cyclopentylideneamino)oxy]-5-(trifluoromethyl)benzamide] | 1.7 nM | 3.2 nM |  |  |
| CCCCn1nc(C(C)(C)C)s/c1=N\C(=O)c1cc(C(F)(F)F)ccc1NNC(=O)c1ccncc1 [Example 191, N-[(2Z)-3-butyl-5-tert-butyl-1,3,4-thiadiazol-2(3H)-ylidene]-2-(2-isonicotinoylhydrazino)-5-(trifluoromethyl)benzamide] | 0.8 nM | 0.9 nM |  |  |
| CCCCn1nc(C(C)(C)C)s/c1=N\C(=O)c1cc(C(F)(F)F)ccc1NNC(=O)OC [Example 192, methyl 2-[2-({[(2Z)-3-butyl-5-tert-butyl-1,3,4-thiadiazol-2(3H)-ylidene]amino}carbonyl)-4-(trifluoromethyl)phenyl]hydrazinecarboxylate] |  |  | 0.7 nM | 0.7 nM |
| CCCCn1nc(C(C)(C)C)s/c1=N\C(=O)c1cc(C(F)(F)F)ccc1NNC(=O)C(C)(C)C [Example 193, N-[(2Z)-3-butyl-5-tert-butyl-1,3,4-thiadiazol-2(3H)-ylidene]-2-[2-(2,2-dimethylpropanoyl)hydrazino]-5-(trifluoromethyl)benzamide] | 0.4 nM | 0.5 nM |  |  |

— patent US8859596B2, “Compounds as cannabinoid receptor ligands” (priority 2008, dated 2014)
